Data on 13 compounds can be found in ChEMBL document CHEMBL1144573, “Lead optimization of [(S)-gamma-(arylamino)prolyl]thiazolidine focused on gamma-substituent: Indoline compounds as potent DPP-IV inhibitors” (Bioorg Med Chem, 2007).

In test [1] the target is Dipeptidyl peptidase 4 (Rattus norvegicus, UniProt P14740). The test is described as follows: Inhibition of DPP4 in rat plasma by fluorescence assay. Format: cell-free.
Test [2] has as its target Dipeptidyl peptidase 4 (Homo sapiens, UniProt P27487). Format: cell-free, Plasma.

Molecules are shown by their SMILES.

Sequence of Dipeptidyl peptidase 4 (Rattus norvegicus, UniProt P14740) (P14740 whole entry): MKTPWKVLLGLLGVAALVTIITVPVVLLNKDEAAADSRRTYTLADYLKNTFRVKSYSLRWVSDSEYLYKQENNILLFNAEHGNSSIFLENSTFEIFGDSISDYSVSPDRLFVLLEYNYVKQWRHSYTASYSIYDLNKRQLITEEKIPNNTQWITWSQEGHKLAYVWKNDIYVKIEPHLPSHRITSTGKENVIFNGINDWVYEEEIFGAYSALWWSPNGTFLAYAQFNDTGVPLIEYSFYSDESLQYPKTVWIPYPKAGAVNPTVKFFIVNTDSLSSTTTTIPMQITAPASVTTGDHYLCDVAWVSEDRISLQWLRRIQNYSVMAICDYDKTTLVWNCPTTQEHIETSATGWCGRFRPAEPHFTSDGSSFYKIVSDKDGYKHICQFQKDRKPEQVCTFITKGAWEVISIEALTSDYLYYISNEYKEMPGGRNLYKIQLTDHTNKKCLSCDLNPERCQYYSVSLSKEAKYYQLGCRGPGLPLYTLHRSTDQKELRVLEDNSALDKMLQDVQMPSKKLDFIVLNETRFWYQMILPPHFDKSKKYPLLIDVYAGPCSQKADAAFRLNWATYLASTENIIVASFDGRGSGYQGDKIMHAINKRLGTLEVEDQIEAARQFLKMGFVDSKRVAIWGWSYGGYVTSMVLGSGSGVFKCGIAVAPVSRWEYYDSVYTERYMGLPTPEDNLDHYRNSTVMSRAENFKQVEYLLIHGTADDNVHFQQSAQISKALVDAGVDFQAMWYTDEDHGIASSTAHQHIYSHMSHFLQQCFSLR
Sequence of Dipeptidyl peptidase 4 (Homo sapiens, UniProt P27487) (P27487 whole entry): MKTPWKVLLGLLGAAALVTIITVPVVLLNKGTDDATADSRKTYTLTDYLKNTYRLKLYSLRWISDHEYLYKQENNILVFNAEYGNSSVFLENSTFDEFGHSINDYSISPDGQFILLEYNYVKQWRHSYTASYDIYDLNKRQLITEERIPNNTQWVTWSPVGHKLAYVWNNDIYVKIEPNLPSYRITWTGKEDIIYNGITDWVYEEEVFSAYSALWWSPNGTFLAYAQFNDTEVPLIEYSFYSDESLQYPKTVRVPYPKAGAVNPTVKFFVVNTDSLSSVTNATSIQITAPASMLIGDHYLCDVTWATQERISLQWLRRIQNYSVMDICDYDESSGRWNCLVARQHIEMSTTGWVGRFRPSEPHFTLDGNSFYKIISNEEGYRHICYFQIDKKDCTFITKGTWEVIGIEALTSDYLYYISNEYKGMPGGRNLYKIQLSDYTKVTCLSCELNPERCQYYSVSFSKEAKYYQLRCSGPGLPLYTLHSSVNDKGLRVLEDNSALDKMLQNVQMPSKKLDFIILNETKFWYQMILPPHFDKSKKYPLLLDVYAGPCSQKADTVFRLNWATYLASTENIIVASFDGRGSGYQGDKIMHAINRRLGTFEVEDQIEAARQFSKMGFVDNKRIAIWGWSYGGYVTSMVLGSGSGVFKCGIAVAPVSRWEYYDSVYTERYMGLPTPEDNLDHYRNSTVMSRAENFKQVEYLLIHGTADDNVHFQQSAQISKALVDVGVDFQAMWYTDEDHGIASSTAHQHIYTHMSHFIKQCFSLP

In turn, `O=C([C@@H]1C[C@H](N2CCc3cc(F)ccc32)CN1)N1CCSC1` had an IC50 against Dipeptidyl peptidase 4 [1] of 10.1 nM.
In the case of `O=C([C@@H]1C[C@H](N2CCc3cc(Br)ccc32)CN1)N1CCSC1`, half-maximal inhibition against Dipeptidyl peptidase 4 [1] (IC50) required 10.7 nM.
For `O=C([C@@H]1C[C@H](NS(=O)(=O)c2ccccc2)CN1)N1CCSC1`, the IC50 on Dipeptidyl peptidase 4 [1] and at Dipeptidyl peptidase 4 [2] was greater than 300 nM each time.
`O=C([C@@H]1C[C@H](N2CCc3cc([N+](=O)[O-])ccc32)CN1)N1CCSC1` showed an IC50 on Dipeptidyl peptidase 4 [1] of 10.3 nM.
The compound `N#Cc1ccc(CN(CCO)[C@@H]2CN[C@H](C(=O)N3CCSC3)C2)cc1` registered an IC50 on Dipeptidyl peptidase 4 [1] of 23 nM.
`CN(Cc1ccc(C#N)cc1)[C@@H]1CN[C@H](C(=O)N2CCSC2)C1` came in with an IC50 on Dipeptidyl peptidase 4 [1] of 13.6 nM.
On to `O=C(O[C@@H]1CN[C@H](C(=O)N2CCSC2)C1)c1ccccc1`, for which the IC50 at Dipeptidyl peptidase 4 [1] and against Dipeptidyl peptidase 4 [2] was greater than 300 nM in each case.
`O=C(N[C@@H]1CN[C@H](C(=O)N2CCSC2)C1)c1ccccc1` displayed an IC50 against Dipeptidyl peptidase 4 [2] greater than 300 nM.
Consider `N#Cc1ccc(C(=O)O[C@@H]2CN[C@H](C(=O)N3CCSC3)C2)cc1`, for which the IC50 on Dipeptidyl peptidase 4 [1] and against Dipeptidyl peptidase 4 [2] was greater than 300 nM each time.
In turn, `O=C([C@@H]1C[C@H](N2CCc3ccccc32)CN1)N1CCSC1` yielded an IC50 on Dipeptidyl peptidase 4 [1] of 19.5 nM.
For `N#Cc1ccc(S(=O)(=O)N[C@@H]2CN[C@H](C(=O)N3CCSC3)C2)cc1`, the IC50 against Dipeptidyl peptidase 4 [1] and against Dipeptidyl peptidase 4 [2] was greater than 300 nM each time.
On to `O=C([C@@H]1C[C@H](N2CCc3cc(Cl)ccc32)CN1)N1CCSC1`, for which the IC50 on Dipeptidyl peptidase 4 [1] was 13.4 nM.
On to `COc1ccc(N[C@@H]2CN[C@H](C(=O)N3CCSC3)C2)cc1`, for which the IC50 on Dipeptidyl peptidase 4 [1] stood at 54.9 nM.

As usually defined, the IC50 is the concentration needed to halve the response being measured. Low values mean greater potency in that assay, high ones weaker potency in that assay.
